Columns and labels:
[1] = molecular target: T1, dihydropyrimidine dehydrogenase (DPD) (Canis lupus familiaris, UniProt A0A8I3P1X8); assay: 13CO2 excretion in expired air after intravenous injection of 2-13C-labeled uracil preparation (Example 1); type: in vivo; conditions: FIG. 2
T1 construct: Fasted beagle dogs were used as experimental animals; from tissue; host or cells: whole living beagle dogs (in vivo)
T1 sequence (A0A8I3P1X8 1-1026): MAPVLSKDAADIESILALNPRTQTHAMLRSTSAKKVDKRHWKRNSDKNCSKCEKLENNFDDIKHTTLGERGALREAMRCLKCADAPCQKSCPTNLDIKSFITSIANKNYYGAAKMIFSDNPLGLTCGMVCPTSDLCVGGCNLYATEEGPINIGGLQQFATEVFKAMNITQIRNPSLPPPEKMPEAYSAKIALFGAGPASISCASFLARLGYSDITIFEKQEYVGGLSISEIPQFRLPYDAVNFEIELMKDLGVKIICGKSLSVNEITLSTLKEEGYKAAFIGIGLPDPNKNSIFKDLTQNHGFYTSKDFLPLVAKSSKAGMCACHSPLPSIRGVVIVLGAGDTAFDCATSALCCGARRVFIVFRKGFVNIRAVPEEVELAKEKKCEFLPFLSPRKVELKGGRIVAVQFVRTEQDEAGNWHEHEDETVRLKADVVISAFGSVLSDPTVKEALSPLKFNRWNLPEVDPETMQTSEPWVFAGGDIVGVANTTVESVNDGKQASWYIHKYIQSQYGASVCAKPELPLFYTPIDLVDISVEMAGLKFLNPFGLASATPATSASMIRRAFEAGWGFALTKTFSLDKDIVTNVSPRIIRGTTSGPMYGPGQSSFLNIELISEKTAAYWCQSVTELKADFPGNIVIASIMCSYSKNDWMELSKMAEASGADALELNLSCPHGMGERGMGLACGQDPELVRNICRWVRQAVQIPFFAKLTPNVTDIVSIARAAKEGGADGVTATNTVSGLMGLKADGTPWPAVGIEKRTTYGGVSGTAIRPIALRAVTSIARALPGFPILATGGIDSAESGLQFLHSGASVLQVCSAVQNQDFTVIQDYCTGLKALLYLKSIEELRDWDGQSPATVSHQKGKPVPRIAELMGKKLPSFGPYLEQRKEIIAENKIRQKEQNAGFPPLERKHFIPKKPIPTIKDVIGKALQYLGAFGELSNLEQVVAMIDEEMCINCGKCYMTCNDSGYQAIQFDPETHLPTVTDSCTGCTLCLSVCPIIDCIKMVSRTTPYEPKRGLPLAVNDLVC
Description: Uracil having […] carbon at the 2-position (2-^13C-labeled uracil) was used as an isotope-labeled pyrimidine compound. A preparation for determining the pyrimidine metabolic capacity in the form of an intravenous injection comprising the 2-^13C-labeled uracil as an active ingredient was prepared and tested for usefulness for determining pyrimidine metabolic capacity.
Uracil-2-^13C (Cambridge Isotope Laboratory) (300 mg) was dissolved in 24 ml of 0.1N NaOH/saline solution (measured out from 200 ml of 0.1N NaOH/saline solution prepared by diluting 2 ml of 10N sodium hydroxide solution with physiological saline), to give a preparation for determining the pyrimidine metabolic capacity in the form of an intravenous injection (containing 50 mg of uracil-2-^13C per 4 ml of the injection).
(E)-5-(2-bromovinyl)-uracil (250 mg) and gum arabic (2.25 g) were mixed together, and the mixture was kneaded while adding a slight amount of water, to prepare 45 ml of a suspension (containing 83.3 mg of (E)-5-(2-bromovinyl)-uracil per 15 ml of the suspension).
Fasted beagle dogs were used as experimental animals. […] The concentration of ^13C-labeled carbon dioxide excreted in the collected expired air was measured using a GC-MS analyzer (ABCA-G, Europa Scientific). […]

[2] = molecular target: T1, dihydropyrimidine dehydrogenase (DPD); assay: 13CO2 excretion in expired air after oral administration of 2-13C-labeled uracil preparation (Example 2); type: in vivo; conditions: FIG. 3
Description: A preparation for determining the pyrimidine metabolic capacity in an oral form was prepared using the same 2-^13C-labeled uracil as used in Example 1 as an active ingredient, and tested for usefulness for measuring pyrimidine metabolic capacity.
2-^13C-labeled uracil (Cambridge Isotope Laboratory) (300 mg) was dissolved in 24 ml of 0.1N NaOH/saline solution (measured out from 200 ml of 0.1N NaOH/saline solution prepared by diluting 2 ml of 10N sodium hydroxide solution with physiological saline). Then, water was added to give 60 ml of a preparation for determining pyrimidine metabolic capacity in the form of an oral solution (containing 50 mg of 2-^13C-labeled uracil per 10 ml of the oral solution).
Fasted beagle dogs were used as experimental animals. In Group 1 (n=3), the preparation prepared above in (1) was orally administered (50 mg/10 ml/body) (test group). […] The concentration of ^13C-labeled carbon dioxide excreted in the expired air was measured in the same manner as in Example 1, using a GC-MS analyzer (ABCA-G, Europa Scientific). […]

[3] = tested on: dihydropyrimidine dehydrogenase (DPD); conditions: Cancer Research 46, 1094-1101, 1986; cited from earlier work
[4] = Dose dependence of 13CO2 concentration in expired air after oral 2-13C-labeled uracil (Example 3); type: in vivo, beagle dogs; conditions: dose of 10 to 80 μmol/kg body weight, FIGS. 5 and 6
Description: In 50 ml portions of 0.05N sodium hydroxide, 56.5 mg, 113.1 mg, 226.2 mg, and 452.3 mg of 2-^13C-labeled uracil (Cambridge Isotope Laboratory) were dissolved separately, to prepare solutions with concentrations of 10 μmol/ml, 20 μmol/ml, 40 μmol/ml, and 80 μmol/ml, respectively. The solutions were forcibly administered orally to fasted male beagle dogs (n=3) using oral tubes for dogs, in an amount of 1 ml/kg body weight (dose: […]), and thereafter water was forcibly administered orally in an amount of 2 ml/kg body weight. The expired air was collected before administration, and after 15, 30, 45, 60, 75, 90, 105, 120, 135, 150, 180, 210, and 240 minutes after administration. Then, the ^13C-labeled carbon dioxide concentration in the expired air was measured, and pharmacokinetic parameters (the area under the curve (AUC) and maximum ^13C-labled carbon dioxide concentration (Cmax)) were calculated from the obtained transition curve of the ^13C-labeled carbon dioxide concentration in the expired air.

[5] = tested on: pyrimidine metabolic pathway; conditions: administered to the body; Cancer (Phila), 68, 499-501, 1991; cited from earlier work

In the case of O=c1[nH]cc(/C=C/Br)c(=O)[nH]1 [(E)-5-(2-bromovinyl)-uracil], the “excretion of 13CO2 in the expired air after DPD inhibitor pretreatment” value ([1]; DPD inhibitor 83.3 mg/body orally 1 hour before intravenous 2-13C-labeled uracil 50 mg/body, compared with test group) is given as “markedly lower excretion”, the “excretion of 13CO2 in the expired air after DPD inhibitor pretreatment” value ([2]; DPD inhibitor 83.3 mg/15 ml/body orally 1 hour before oral 2-13C-labeled uracil 50 mg/10 ml/body, compared with test group) is given as “markedly reduced” and the DPD inhibitor activity [3] is given as “known as a dihydropyrimidine dehydrogenase (DPD) inhibitor”.

With O=c1cc[nH][13c](=O)[nH]1 [2-^13C-labeled uracil] the “metabolism and excretion in the expired air as 13CO2” value ([1]; test group, fasted beagle dogs, intravenous injection 50 mg/body, expired air 0-240 min) was “metabolized and excreted in the expired air as ^13CO2”, the “metabolism and excretion in the expired air as 13CO2” value ([2]; test group, fasted beagle dogs, oral 50 mg/10 ml/body, expired air 0-240 min) was “metabolized and excreted in the expired air as ^13CO2” and the “excretion kinetics in the expired air (AUC and Cmax versus dose)” value [4] was “has linearity”.

For O=c1[nH]cc(F)c(=O)[nH]1 [5-FU, 5-fluorouracil], the “share of administered 5-FU degraded in the pyrimidine metabolic pathway” value [5] is given as “about 80%”.

— patent US7488466B2, “Preparation for determining pyrimidine metabolic capacity” (Otsuka Pharmaceutical Co., Ltd., priority 2002, dated 2009)
